Measured values taken from patent US6509351B1, “Phenyl- and pyridyl-tetrahydro-pyridines having TNF inhibiting activity” (Sanofi-Syntelabo, priority 1999, dated 2003).
Structures can show the parent of a compound that is named as a salt.

Row | SMILES | melting point [°C]
1 | Cc1ccc2ccc(CCN3CC=C(c4cccc(C(F)(F)F)c4)CC3)cc2n1 (as salt: hydrochloride) | 221
2 | CCc1cc2ccc(CCN3CC=C(c4cccc(C(F)(F)F)c4)CC3)cc2cn1 (as salt: hydrochloride) | 230
